The test system of one data set is HT-29. The data set can be described thus: Cytotoxicity against human HT-29 cells by MTT assay. It counts as functional. The following applies: read-out: ED50 (the source's name). For orientation: Formazan colour is commonly taken as a measure of viable cells.
The test system of a further data set is A549. The data set can be described thus: Cytotoxicity against human A549 cells by MTT assay. It counts as functional. Conditions: read-out: ED50 (the source's name).
A further data set has as its system A498. The data set can be described thus: Cytotoxicity against human A-498 cells by MTT assay. It counts as functional. Conditions: read-out: ED50 (the source's name).
Another data set relates to PC-3. Description: Cytotoxicity against human PC-3 cells by MTT assay. The following applies: read-out: ED50 (the source's name). The format is functional.
Another data set deals with MCF7. The data set can be described thus: Cytotoxicity against human MCF7 cells by MTT assay. It counts as functional. Conditions: read-out: ED50 (the source's name).
A further data set relates to MIA PaCa-2. Description: Cytotoxicity against human PaCa2 cells by MTT assay. It counts as functional. Conditions: read-out: ED50 (the source's name).
The nature of data set [1]: Toxicity in brine shrimp. The following applies: artemia, in vivo. The format is organism-based.
For another data set, the system named is Aedes aegypti. The data set can be described thus: Pesticidal activity against yellow fever mosquito larvae by microtiter plate assay. It counts as functional.

This is an account of results in ChEMBL document CHEMBL1157981, “Goniotriocin and (2,4-cis- and -trans)-xylomaticinones, bioactive annonaceous acetogenins from Goniothalamus giganteus” (J Nat Prod, 1999).

Molecules are shown by their SMILES. In brackets after ≈: the same amount, converted by molar mass.

As for `COc1cccc2c1C(=O)c1c(O)c3c(c(O)c1C2=O)C[C@@](O)(C(=O)CO)C[C@@H]3O[C@H]1C[C@H](N)[C@H](O)[C@H](C)O1` [DOXORUBICIN], the EC50 in the data set on HT-29 was found to be 0.031 µg/mL (≈ 0.057 µM); in the data set with A549, 0.017 µg/mL (≈ 0.0313 µM); in the data set on A498, 0.019 µg/mL (≈ 0.035 µM); with PC-3 it was 0.062 µg/mL (≈ 0.114 µM); in the data set on MCF7, 0.21 µg/mL (≈ 0.386 µM); in the data set on MIA PaCa-2, 0.023 µg/mL (≈ 0.0423 µM).
Take `CCCCCCCCCCCCC(=O)C[C@@H]1C[C@@H](O)[C@@H](CC[C@H](O)[C@@H]2CC[C@@H](CCCCCC(O)CC3=CC(C)OC3=O)O2)O1` (stereo not given in full) [GONIOTRICIN]: the EC50 with HT-29 amounted to 0.0012 µg/mL (≈ 0.00188 µM); in the data set on A549, 0.033 µg/mL (≈ 0.0518 µM); in the data set on A498 it was 0.0011 µg/mL (≈ 0.00173 µM); in the data set with PC-3, 0.26 µg/mL (≈ 0.408 µM); with MCF7 it was 0.0033 µg/mL (≈ 0.00518 µM); in the data set with MIA PaCa-2, 1.4 µg/mL (≈ 2.2 µM). In addition, the LC50 is 2.7 µg/mL (≈ 4.24 µM) in data set [1] and 3.6 µg/mL (≈ 5.65 µM) in the data set with Aedes aegypti.
`C=C(C)[C@H]1Cc2c(ccc3c2O[C@@H]2COc4cc(OC)c(OC)cc4[C@@H]2C3=O)O1` [ROTENONE] showed an LC50 with Aedes aegypti of 0.3 µg/mL (≈ 0.761 µM).

In general, LC50 refers to the concentration that kills 50% of the test population. Low values mean greater toxicity, high ones lower toxicity.
